assay: Human HepG2 cell viability assay in 384 well format; type: toxicity, cell-based; set-up: dose 125 nL, time 70.5 hour; concentration not given beside the values; details: HepG2 cells, read-out: Inhibition

SMILES	cytotoxicity at 70.5 h
Cc1cnc(C(=O)N2CCCC3(CCN(c4cnn(C)c4)C3=O)C2)cn1 (stereo unspecified)	-3.83%
Cn1cc(N2CCC3(CCCN(C(=O)c4ccnn4C)C3)C2=O)cn1 (stereo unspecified)	-4.7%
c1cc(-c2ccc3c(c2)C2(CC3)CCN(c3nncs3)CC2)ccn1	1.28%
O=S(=O)(C1CC1)N1CCC2(COCc3cnc(NCC4CC4)nc32)C1 (stereo unspecified)	-6.1%
Cc1noc(C)c1CN1C[C@@H]2COC[C@]2(COc2ccc(C#N)cn2)C1	-2.55%
COC[C@@]12CCO[C@@H]1CCN(C(=O)Cc1ccccc1C)C2	-3.36%
COC[C@@]12CCO[C@@H]1CCN(C(=O)CCc1ccccc1Cl)C2	-3.89%
Cc1nn(Cn2ccc(C(=O)N3CCC(C)CC3)n2)c(C)c1Cl	-13.2%
CC(C(=O)O)n1nc(C(F)(F)F)c(Cl)c1C1CC1 (stereo unspecified)	5.37%
Cc1ccc(OCc2ccc(C(=O)O)s2)cc1C	-6.36%
CCn1cc(Cn2cc(Cl)c(N)n2)c(C)n1	-2.35%
COc1cc(C(F)(F)F)sc1C(=O)O	-6.37%
O=C(O)Cn1nc(C2CC2)c2c(-c3cccs3)ccnc21	25.1%
CCNC(=O)Cc1n[nH]c(-c2cncc(Br)c2)n1	32%
CCC(=O)Nc1c(C)nn(COc2cccc(F)c2)c1C	-2.04%
CCS(=O)(=O)Nc1cnn(Cc2cccc(Cl)c2)c1	-10.7%
CCn1cc(CN(C)S(=O)(=O)c2ccc(C(C)C)cc2)cn1	-6.2%
CCCNC(=O)c1nn(CC)cc1Cl	-3.27%
CSc1ccc(CNc2n[nH]c(C)n2)cc1	44.9%
Cn1nnc(NCc2ccc(-c3ccc(Br)cc3)o2)n1	-9.29%
CCn1nnc(NCc2ccc(-c3ccc(Br)cc3)o2)n1	-7.12%
CCCn1nnc(NCc2cc(Br)cc(Br)c2OC)n1	-9.35%
C=C/C=c1\c(=C/C)oc2c(NCc3ccccc3)ncnc12	10.6%
CCOCCCNc1cc(C)nn2cnnc12	7.54%

SMILES	cytotoxicity at 70.5 h
C=C/C=c1\c(=C/C)oc2c(NCc3ccccc3)nc(C)nc12	13.2%
CN1CCc2c1nc1c(c2N)CCC1	-7.38%
O=C(O)Cn1ccc2c(Cl)cccc21	-1.23%
Cc1ccc(NC(=O)c2n[nH]c(-n3cnnc3)n2)cc1	-8.15%
Cc1c2ncn(CC(=O)NC(C)C)c(=O)c2nn1C	3.83%
O=c1c2cc3c(cc2nnn1Cc1cccc(F)c1)OCCO3	-9.5%
Cc1ccccc1Cn1nnc2cc3c(cc2c1=O)OCCO3	-9.38%
CCn1nc(C)c(NC(=O)C(C)C)c1C	-2.76%
Cc1nn(C)c2c(=O)n(Cc3ccccc3)nnc12	-13.5%
Cc1nn(C)c2c(NCc3ccccn3)ncnc12	-2.17%
Cc1nc(NC2CC2)c2c(n1)c(C)nn2C	-18.4%
Cc1nc(NCc2ccccn2)c2c(n1)c(C)nn2C	5.97%
COc1ccc(Nc2nc3c(C)nn(C)c3c(=O)n2C)cc1	29.7%
COc1ccc(C)cc1Nc1nc2c(C)nn(C)c2c(=O)n1C	-5.48%
COc1ccc(C(C)Nc2nc3c(C)nn(C)c3c(=O)n2C)cc1 (stereo unspecified)	-3.89%
CCn1c(NCC2CCCO2)nc2c(C)nn(C)c2c1=O (stereo unspecified)	-7.98%
CCCn1c(N2CCCC2)nc2c(C)nn(C)c2c1=O	-6.89%
CCCn1c(NCCc2ccccc2)nc2c(C)nn(C)c2c1=O	11.6%
Cc1c2ncn(CC(=O)c3ccccc3)c(=O)c2nn1C	-3.76%
CNc1[nH]nc(N)c1NC(=O)c1ccccc1	-17.7%
CCn1nc(CNC(C)(C)CO)c(-c2ccccc2)n1	-1.62%
O=C(Nc1ccccc1)c1n[nH]c(-n2cnnc2)n1	-2.23%
CCCN(c1ccccc1C(=O)O)S(=O)(=O)c1ccc2ccccc2c1	-6.16%
CS(=O)(=O)Nc1ccn(Cc2cccc(F)c2)n1	-6.83%

SMILES	cytotoxicity at 70.5 h
CCn1c(SCC(N)=O)nnc1-c1csc2c1CCCC2	2.39%
CCS(=O)(=O)Nc1ccn(Cc2c(F)cccc2Cl)n1	-9.46%
O=S(=O)(c1ccc(F)c(F)c1)n1cc(Cl)cn1	-6.91%
Cc1sc(NC(=O)CCC(=O)O)c(C(N)=O)c1-c1ccc(Cl)cc1Cl	-1.16%
CCCNC(=O)NC(C)c1ccccn1 (stereo unspecified)	-11.1%
CS(=O)(=O)Nc1ccn(Cc2ccc(Br)cc2)n1	-8.91%
CCCN1CCC(NC(=O)c2csc(C)c2-c2ccc(C)cc2)CC1	-0.127%
Cc1cccc(-n2nnnc2C2(NCc3ccco3)CCCCC2)c1	-3.38%
Cc1nc(N2CCCC2)ncc1-c1cc(O)nc(N2CCOCC2)n1	-4.64%
COc1cc2cc(C(=O)NCC(=O)O)n(C)c2c(OC)c1OC	31.9%
CC(=O)N1CCN([C@@H]2CN(C(=O)c3ccccc3)C[C@H]2O)CC1	-5.08%
CC(=O)N1CCN([C@@H]2CN(C(=O)c3ccccc3C)C[C@H]2O)CC1	-3.99%
Cc1ccc(Nc2nccc(C3CCN(C(=O)CO)C3)n2)nc1 (stereo unspecified)	-11.2%
CNc1cc(C2CCCN(C(=O)c3ccc(=O)[nH]n3)C2)ccn1 (stereo unspecified)	-0.0309%
CC(=O)N1CCC(Cc2cnc(-c3c(C)nn(C)c3C)cn2)CC1	-0.949%
CN(C)S(=O)(=O)N1CCC(C)(c2ncc(C(N)=O)s2)CC1	-5.66%
c1ccc(CCN2CCCC2c2ccnc(Nc3cnccn3)n2)cc1 (stereo unspecified)	-3.41%
Cc1cc(O)nc(C2CCCN(CCO)C2)n1 (stereo unspecified)	-1.84%
c1cc(-c2cnc(C3CCNCC3)cn2)n[nH]1	12.8%
Cc1cc(C)nc(N2CCOC(C)(C(=O)N(C)C)C2)n1 (stereo unspecified)	-4.59%
Cc1c(CN2CCCC2(C)C(=O)N2CCOCC2)cnn1C (stereo unspecified)	-7.03%
Cc1nccc(C2CN(C(=O)c3cncnc3)C2)n1	-13.8%
Cc1cnc(N2CCOC(C(=O)NCc3ccccc3)C2)s1 (stereo unspecified)	-15.2%
CCn1ccc2ccnc(CC3CN(C(=O)c4cnco4)C3)c21	-6.85%

SMILES	cytotoxicity at 70.5 h
COCC(=O)NC[C@H]1CC[C@H](c2nnc(-c3cccnc3)o2)CC1	-7.6%
Cc1ccc(C2CN(Cc3cccc4[nH]ccc34)CCO2)nc1 (stereo unspecified)	46%
Cc1ccn(CCNC(=O)C2CCN(S(=O)(=O)c3ccc(F)cc3)C2)n1 (stereo unspecified)	8.09%
CC1(C(=O)NC2CCCC2)CCCN(c2ncccn2)C1 (stereo unspecified)	6.47%
CNc1nc(C2CCN(C(=O)CC3CCCC3)C2)nc2c1CN(C)CC2 (stereo unspecified)	8.17%
CCN1CCCC(O)(c2nc(C)c(CCOc3ccccc3Cl)s2)CC1 (stereo unspecified)	-7.73%
CC(=O)N1CCc2nnc(C3CCCCN3CC3CC3)n2CC1 (stereo unspecified)	-13%
Cc1noc(C)c1-c1ccnc(C2CCN(S(=O)(=O)N(C)C)CC2)c1	-2.76%
CC(=O)N1CCn2c(nnc2C2CCCCN2Cc2ccccc2Cl)C1 (stereo unspecified)	-3.34%
COCc1ccc(C(=O)N2CCC(c3cc4nccnc4[nH]3)CC2)cc1	-14.3%
Cc1ccnc(C2CCN(C(=O)CCn3ncc4ccccc43)C2)n1 (stereo unspecified)	-8.45%
Cc1cc(C(=O)NCCc2c(C)nn(C)c2C)nc(N2CCCCC2)n1	20.6%
CCOC(=O)c1n[nH]cc1-c1cncn1CCn1nc(C)c(Cl)c1C	-5.26%
CNC(=O)c1cn[nH]c1C1CCN(Cc2cn(C)nc2C)C1 (stereo unspecified)	-12.4%
CN1CCOC(C)(C(=O)N2CCN(C3CCCC3)CC2)C1 (stereo unspecified)	-11.9%
CS(=O)(=O)c1cn[nH]c1C1CCCN(C(=O)Cn2cccn2)C1 (stereo unspecified)	-9.34%
CN(C)c1cc(C2CCCN(S(=O)(=O)C3CCCC3)C2)ccn1 (stereo unspecified)	-7.46%
O=C(Cn1cc(Cl)cn1)N1CCCC(c2ccn[nH]2)C1 (stereo unspecified)	-7.33%
Cn1cncc1CN1CCCC1c1cncc(Oc2ccc(Cl)cc2)n1 (stereo unspecified)	8.74%
Cc1nccn1CCC1CCN(C(C)C)CC1	-2.75%
O=C(c1cc[nH]n1)N1CCC(c2cc(Nc3ccccn3)n[nH]2)CC1	-8.04%
CCc1nccn1-c1cccc(C2CCN(C(=O)COC)CC2)n1	0.0936%
CNC(=O)C1(C)CCCN(c2cnccn2)C1 (stereo unspecified)	-8.04%
CCn1cc(CN2CCN(CC(O)c3ccc(C)cc3C)CC2)cn1 (stereo unspecified)	-4.8%

SMILES	cytotoxicity at 70.5 h
O=C1NC[C@]2(CC[C@@H](C(=O)N3CCCC(O)C3)CC2)Oc2ccccc21 (stereo partly specified)	-7.1%
O=C(CCn1c(C(F)(F)F)cc2cccnc21)NC1CCCC1	-3.77%
O=C(c1nsc(Cl)c1Cl)N1CCc2nc3sccc3c(=O)n2CC1	-3.17%
Cn1cc(Cl)c(C(=O)N2CCc3nc4sccc4c(=O)n3CC2)n1	-2.51%
Cc1cc(O)nc(C2CCCNC2)n1 (stereo unspecified)	-3.99%
COc1ccc(-c2cc(C3CCNCC3)ccn2)cc1	-4.77%
O=C(C1CCC1)N1C[C@@H](c2ccsc2)[C@@H]2CN(C3CCCCC3)CC[C@@H]21	14.8%
CC(=O)N1CCC[C@@H](NCc2cccc(F)c2)[C@@H]1c1ccc(C)s1	-6.03%
CC(=O)N1CCC[C@@H](NCc2c[nH]c3ccccc23)[C@@H]1c1ccc(C)s1	-8.53%
CC1Cc2cc(-c3cncn3CC(=O)NC(C)(C)C)ccc2N1C (stereo unspecified)	-7.08%
CCOC(=O)c1n[nH]cc1-c1cncn1CCCn1nc(C)cc1C	-5.33%
c1ccc(CCNc2cccc(C3CCCNC3)n2)cc1 (stereo unspecified)	6.58%
CN1CCC(c2nc3ccc(-c4ccccc4)cn3n2)CC1	-3.45%
O=C(N1CCCC1)N1CCC[C@]2(C[C@@H](Oc3ncccc3F)CO2)C1	-4.8%
O=C(c1ccnnc1)N1CC[C@]2(C[C@H](Oc3ncccc3F)CO2)C1	-5.53%
c1cc(-c2ccc3nc(C4CCN(CC5CC5)CC4)nn3c2)ccn1	3.64%
c1cncc(O[C@H]2CC[C@H]3[C@H]2OCCN3C2CCCC2)c1	-1.6%
O=C(Cc1ccccn1)N1CC[C@]2(C[C@@H](Oc3ncccc3F)CO2)C1	2.46%
COCCN1C[C@@H]2[C@@H](OC)CCN(Cc3cccs3)[C@@H]2C1	-1.71%
Cn1cc(CN2CCC3(CCCN3Cc3cccnc3)CC2)cn1	-3.83%

From ChEMBL document CHEMBL3507680, “University of Dundee, Gates Library screen for HepG2 cell viability”
